system: HCT116 cells; experiment: Cell viability assay (CellTiter-Glo, 72 hours) in HCT116 human colorectal cancer cells; assay type: cell-based; details: Homo sapiens, HCT-116; Table 5; HCT116, 72 hours; read-out: Activity
Experimental: Cell culture: The HCT116 cell line was obtained from ATCC and cultured in Dulbecco's Modified Eagle's Medium (DMEM)-high glucose (Sigma Aldrich #D5796) supplemented with 10% fetal bovine serum (FBS) (Sigma-Aldrich #F2442) and 2 mM L-Glutamine (Sigma Aldrich #G7513). Cells were cultured at 37° C. in 5% CO2. The identity of all cell lines was confirmed by short tandem repeat (STR) analysis and confirmed to be mycoplasma-free using a PCR based assay (Genatlantis).
Cell viability assay: In 96-well assay plates (Corning #2903), 2,000 cells were plated per well in 100 μL of medium and allowed to adhere overnight. The next day, compounds suspended in DMSO were dispensed to the assayed wells using a D300e Digital Dispenser (Tecan). All wells were normalized to 0.5% DMSO. 72 hours after incubation at 37° C. in 5% CO2, cell viability was assayed using an ATP-based luminescent viability assay, CellTiter-Glo (Promega #G8462). Substrate was mixed 1:1 with phosphate-buffered saline (PBS) supplemented with 1% Triton X-100, and 40 μL of this mixture was added to the assay wells. Plates were shaken on a microplate shaker for 10 minutes at room temperature. Luminescence (CellTiter-Glo) was recorded using a Synergy 2 microplate reader (BioTek). In Prism 9 software (GraphPad), ten-point dose response curves were plotted with baseline-correction to the vehicle control well, and IC50 values were calculated by curve fitting using asymmetric (five parameter), least squares fit.

IC50 [nM]	SMILES
< 500	CC#CCN1C(=O)c2ccccc2Sc2cc(Nc3ccc(C#N)nn3)ccc21 [6-((10-(But-2-yn-1-yl)-11-oxo-10,11-dihydrodibenzo[b,f][1,4]thiazepin-7-yl)amino)pyridazine-3-carbonitrile]
< 500	CC#CCN1C(=O)c2ccccc2Cc2cc(Nc3ncccc3C#N)ccc21 [2-((5-(But-2-yn-1-yl)-6-oxo-6,11-dihydro-5H-dibenzo[b,e]azepin-2-yl)amino) nicotinonitrile]
< 500	CC#CCN1C(=O)c2ccccc2Sc2cc(Nc3ccnnc3)ccc21 [10-(But-2-yn-1-yl)-7-(pyridazin-4-ylamino)dibenzo[b,f][1,4]thiazepin-11 (10H)-one]

same assay, conditions: Homo sapiens, HCT-116; Table 6; HCT116, 72 hours; read-out: Activity

IC50 [nM]	SMILES
< 500	CC#CCN1C(=O)c2ccccc2Sc2cc(NC3COC3)ccc21 [Table 6: —CH2CCMe; oxetan-3-yl; CH/CH; S, 10-(But-2-yn-1-yl)-7-(oxetan-3-ylamino)dibenzo[b,f][1,4]thiazepin-11 (10H)-one]

same assay, conditions: Table 3; HCT116, 72 hours; read-out: Activity

IC50 [nM]	SMILES
< 500	CC#CCN1C(=O)c2ccccc2Sc2cc(NC(=O)Nc3ccc4oc(=O)n(C)c4c3)ccc21

same assay, conditions: Table 4; HCT116, 72 hours; read-out: Activity

IC50 [nM]	SMILES
< 500	CC#CCN1C(=O)c2ccccc2Sc2cc(NC(=S)Nc3ccc(OCF)cc3)cnc21 [Table 4: —CH2CCMe; 4-FH2COPh; N]
< 500	CC#CCN1C(=O)c2ccccc2Sc2cc(NC(=S)Nc3ccc4scnc4c3)cnc21

same assay, conditions: Table 5; HCT116, 72 hours; read-out: Activity

SMILES	IC50 [nM]
CC#CCN1C(=O)c2ccccc2Sc2cc(Nc3nccc(C)c3F)cnc21	< 500
CCCC=CCN1C(=O)c2ccccc2Sc2cc(Nc3ncccc3C#N)cnc21	< 500

same assay, conditions: Table 6; HCT116, 72 hours; read-out: Activity

IC50 [nM]	SMILES
< 500	CC#CCN1C(=O)c2ccccc2Cc2cc(NC3CC4(CC(O)C4)C3)ccc21 (centres unmarked)
< 500	CC#CCN1C(=O)c2ccccc2Cc2cc(NC3COC3)ccc21
< 500	CC#CCN1C(=O)c2ccccc2Sc2cc(NC34CC(C3)C4)ccc21
< 500	CC#CCN1C(=O)c2ccccc2Sc2cc(NC34CC(C3)C4)cnc21

same assay, conditions: Table 7; cell viability assay, CellTiter-Glo, 72 hours; scaffold drawing 42 with R^2, R^3, X/Y, Z; read-out: Activity

IC50 [nM]	SMILES
500 to 1000	COCCN1C(=O)c2ccccc2Sc2cc(NC(=O)c3ccc(OC(F)F)cc3)ccc21 [—(CH2)2OMe; 4-F2HCOPh; CH/CH; S]
500 to 1000	COCCN1C(=O)c2ccccc2Sc2cc(NC(=O)c3ccc(OC)c(F)c3)ccc21 [—(CH2)2OMe; 3-F,4MeOPh; CH/CH; S]
1000 to 5000	COCCN1C(=O)c2ccccc2Sc2cc(NC(=O)c3ccc4nccn4c3)ccc21
500 to 1000	COCCN1C(=O)c2ccccc2Sc2cc(NC(=O)C3CCC3)ccc21 [—(CH2)2OMe; cBu; CH/CH; S]

same assay, conditions: Table 8; analogs of scaffold drawing 43 defined by R^2, R^3, X/Y, W; read-out: Activity (IC50 class, cell viability assay)

SMILES	IC50 [nM]
CC#CCN1C(=O)c2ccccc2Sc2cc(NC(=O)C3CCCO3)cnc21 (centres unmarked) [—CH2CCMe; tetrahydrofuran-2-yl; CH/CH; N]	< 500
CC#CCN1C(=O)c2ccccc2Sc2cc(NC(=O)C34CC(C3)C4)cnc21	< 500
CC#CCN1C(=O)c2cc(F)ccc2Sc2cc(NC(=O)C34CC(OC)(C3)C4)cnc21	< 500
CC#CCN1C(=O)c2ccccc2Sc2cc(NC(=O)c3ccc4oc(=O)n(C)c4c3)cnc21	< 500

The next lines start with the values.

IC50 [nM]	SMILES
< 500	CC#CCN1C(=O)c2cc(F)ccc2Sc2cc(NC(=O)C=CCOC)cnc21 [—CH2CCMe; CH—═CHCH2OMe; CH/CF; N]
< 500	CC#CCN1C(=O)c2cc(F)ccc2Sc2cc(NC(=O)c3ccc(OC)cc3)ccc21 [—CH2CCMe; 4-MeOPh; CH/CF; CH]
< 500	COCCC(C)C(=O)Nc1cnc2c(c1)Sc1ccccc1C(=O)N2CC#CC1CC1 (centres unmarked) [—CH2CC^cPr; MeO(CH2)2CHMe-; CH/CH; N]
< 500	CC#CCN1C(=O)c2ccc(F)cc2Sc2cc(NC(=O)[C@@H]3C[C@H]3CO)cnc21 (relative stereo) [—CH2CCMe; trans-2-HOCH2-cPr; CF/CH; N]
< 500	CC#CCN1C(=O)c2ccccc2Sc2cc(NC(=O)NCCOC)cnc21 [—CH2CCMe; NH(CH2)2OMe; CH/CH; N]
< 500	CC#CCN1C(=O)c2ccccc2Sc2cc(NC(=O)C=CCOC)cnc21 [—CH2CCMe; CH—CHCH2OMe; CH/CH; N]

same assay, conditions: Table 9; HCT116, 72 hours; read-out: Activity

SMILES	IC50 [nM]
CC#CCN1C(=O)c2ccccc2C(C)c2cc(NC(=O)C=CCO)ccc21 (centres unmarked) [Table 9: —CH2CCMe; CH═CHCH2OH; CHMe]	< 500
CC1c2ccccc2C(=O)N(CC#CC2CC2)c2ccc(NC(=O)C3CCOC3)cc21 (centres unmarked)	< 500
